Experimental data from ChEMBL document CHEMBL1201862, “PubChem BioAssay data set” (2004).
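In this assay, cells in 96-well plates receive the compound at five concentrations for 48 hours. Endpoints are linearly interpolated between the surrounding concentrations. Here, GI50 denotes the concentration required for 50% inhibition of growth.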 Calls of active or inactive are those of the source. No stated cut-off is given here; in the data, active = GI50 up to about 1.1 µM and inactive = higher.

Assays:
Assay in all cases: growth of human tumour cells (NCI), 48 h
DMS-114 = test system: DMS-114
HCC 2998 = test system: HCC 2998
COLO 205 = test system: COLO 205
DMS-273 = test system: DMS-273
SK-MEL-5 = test system: SK-MEL-5
SK-OV-3 = test system: SK-OV-3
SF-295 = test system: SF-295
IGROV-1 = test system: IGROV-1
KM12 = test system: KM12
SN12C = test system: SN12C
DLD-1 = test system: DLD-1
ACHN = test system: ACHN
SNB-78 = test system: SNB-78
HOP-18 = test system: HOP-18
M14 = test system: M14
HOP-92 = test system: HOP-92
KM-20L2 = test system: KM-20L2
SW-620 = test system: SW-620
OVCAR-5 = test system: OVCAR-5
NCI-H460 = test system: NCI-H460
HCT-15 = test system: HCT-15
MOLT-4 = test system: MOLT-4
U-251 = test system: U-251
NCI-H23 = test system: NCI-H23
HL-60 = test system: HL-60
HOP-62 = test system: HOP-62
UACC-62 = test system: UACC-62
HCT-116 = test system: HCT-116
SK-MEL-2 = test system: SK-MEL-2
OVCAR-3 = test system: OVCAR-3
SK-MEL-28 = test system: SK-MEL-28
SF-268 = test system: SF-268
XF498 = test system: XF498
CAKI-1 = test system: CAKI-1
NCI-H522 = test system: NCI-H522
UACC-257 = test system: UACC-257
A498 = test system: A498
UO-31 = test system: UO-31
SF-539 = test system: SF-539
EKVX = test system: EKVX
786-0 = test system: 786-0
TK-10 = test system: TK-10
Malme-3M = test system: Malme-3M
M19-MEL = test system: M19-MEL
RXF 393 = test system: RXF 393
OVCAR-4 = test system: OVCAR-4
SNB-75 = test system: SNB-75
SNB-19 = test system: SNB-19
NCI-H226 = test system: NCI-H226
HT-29 = test system: HT-29
OVCAR-8 = test system: OVCAR-8
LXFL 529 = test system: LXFL 529
A549 = test system: A549
CCRF-CEM = test system: CCRF-CEM
SR = test system: SR
RPMI-8226 = test system: RPMI-8226
K562 = test system: K562
LOX IMVI = test system: LOX IMVI

## C/C=C/C(C#N)O[Si](C)(C)C (configuration not stated)
DMS-114
  GI50: > 100 µM (inactive)
HCC 2998
  GI50: > 100 µM (inactive)
COLO 205
  GI50: > 100 µM (inactive)
DMS-273
  GI50: > 100 µM (inactive)
SK-MEL-5
  GI50: > 100 µM (inactive)
SK-OV-3
  GI50: > 100 µM (inactive)
SF-295
  GI50: > 100 µM (inactive)
IGROV-1
  GI50: > 100 µM (inactive)
KM12
  GI50: > 100 µM (inactive)
SN12C
  GI50: > 100 µM (inactive)
DLD-1
  GI50: > 100 µM (inactive)
ACHN
  GI50: > 100 µM (inactive)
SNB-78
  GI50: > 100 µM (inactive)
HOP-18
  GI50: > 100 µM (inactive)
M14
  GI50: > 100 µM (inactive)
HOP-92
  GI50: > 100 µM (inactive)
KM-20L2
  GI50: > 100 µM (inactive)
SW-620
  GI50: > 100 µM (inactive)
OVCAR-5
  GI50: > 100 µM (inactive)
NCI-H460
  GI50: > 100 µM (inactive)
HCT-15
  GI50: > 100 µM
MOLT-4
  GI50: > 100 µM (inactive)
U-251
  GI50: > 100 µM (inactive)
NCI-H23
  GI50: > 100 µM (inactive)
HL-60
  GI50: > 100 µM (inactive)
HOP-62
  GI50: > 100 µM (inactive)
UACC-62
  GI50: > 100 µM (inactive)
HCT-116
  GI50: > 100 µM (inactive)
SK-MEL-2
  GI50: > 100 µM (inactive)
OVCAR-3
  GI50: > 100 µM (inactive)
SK-MEL-28
  GI50: > 100 µM (inactive)
SF-268
  GI50: > 100 µM (inactive)
XF498
  GI50: > 100 µM (inactive)
CAKI-1
  GI50: > 100 µM (inactive)
NCI-H522
  GI50: > 100 µM (inactive)
UACC-257
  GI50: > 100 µM (inactive)
A498
  GI50: > 100 µM (inactive)
UO-31
  GI50: > 100 µM (inactive)
SF-539
  GI50: > 100 µM (inactive)
EKVX
  GI50: > 100 µM (inactive)
786-0
  GI50: > 100 µM (inactive)
TK-10
  GI50: > 100 µM (inactive)
Malme-3M
  GI50: > 100 µM (inactive)
M19-MEL
  GI50: > 100 µM (inactive)
RXF 393
  GI50: > 100 µM (inactive)
OVCAR-4
  GI50: > 100 µM (inactive)
SNB-75
  GI50: > 100 µM (inactive)
SNB-19
  GI50: > 100 µM (inactive)
NCI-H226
  GI50: > 100 µM (inactive)
HT-29
  GI50: > 100 µM (inactive)
OVCAR-8
  GI50: > 100 µM (inactive)
LXFL 529
  GI50: > 100 µM (inactive)
A549
  GI50: > 100 µM (inactive)

## CC(=O)N1C/C(=C\c2ccccc2)C(=O)/C(=C/c2ccccc2)C1
HCC 2998
  GI50: 10.9 µM (inactive)
COLO 205
  GI50: 17.6 µM (inactive)
DMS-273
  GI50: 4.85 µM (inactive)
SK-MEL-5
  GI50: 6.19 µM (inactive)
SK-OV-3
  GI50: 22.5 µM (inactive)
SF-295
  GI50: 13.4 µM (inactive)
IGROV-1
  GI50: 17.6 µM (inactive)
KM12
  GI50: 3.65 µM (inactive)
CCRF-CEM
  GI50: 2.82 µM (inactive)
SN12C
  GI50: 14.4 µM (inactive)
SR
  GI50: 2.99 µM (inactive)
DLD-1
  GI50: 8.71 µM (inactive)
ACHN
  GI50: 16.9 µM (inactive)
SNB-78
  GI50: 17.2 µM (inactive)
HOP-18
  GI50: 18.8 µM (inactive)
M14
  GI50: 6.98 µM (inactive)
KM-20L2
  GI50: 15.6 µM (inactive)
SW-620
  GI50: 2.67 µM (inactive)
OVCAR-5
  GI50: 19.4 µM (inactive)
NCI-H460
  GI50: 17.4 µM (inactive)
HCT-15
  GI50: 8.38 µM
MOLT-4
  GI50: 4.2 µM (inactive)
U-251
  GI50: 15.6 µM (inactive)
RPMI-8226
  GI50: 0.415 µM (active)
NCI-H23
  GI50: 19 µM (inactive)
HL-60
  GI50: 1.68 µM (inactive)
HOP-62
  GI50: 11.4 µM (inactive)
K562
  GI50: 2.89 µM (inactive)
UACC-62
  GI50: 14.4 µM (inactive)
HCT-116
  GI50: 2.51 µM (inactive)
SK-MEL-2
  GI50: 24.9 µM (inactive)
OVCAR-3
  GI50: 6.43 µM (inactive)
LOX IMVI
  GI50: 3.43 µM (inactive)
SK-MEL-28
  GI50: 13.2 µM (inactive)
SF-268
  GI50: 23.2 µM (inactive)
XF498
  GI50: 23.8 µM (inactive)
CAKI-1
  GI50: 17.6 µM (inactive)
NCI-H522
  GI50: 12.3 µM (inactive)
UACC-257
  GI50: 6.9 µM (inactive)
A498
  GI50: 16.8 µM (inactive)
UO-31
  GI50: 19.7 µM (inactive)
SF-539
  GI50: 19.3 µM (inactive)
EKVX
  GI50: 24 µM (inactive)
786-0
  GI50: 15.6 µM (inactive)
TK-10
  GI50: 18.2 µM (inactive)
Malme-3M
  GI50: 18.3 µM (inactive)
M19-MEL
  GI50: 3.34 µM (inactive)
RXF 393
  GI50: 16.2 µM (inactive)
OVCAR-4
  GI50: 17.6 µM (inactive)
SNB-75
  GI50: 20 µM (inactive)
SNB-19
  GI50: 16.8 µM (inactive)
NCI-H226
  GI50: 17.4 µM (inactive)
HT-29
  GI50: 3.04 µM (inactive)
OVCAR-8
  GI50: 7.8 µM (inactive)
LXFL 529
  GI50: 9.4 µM (inactive)
A549
  GI50: 23.1 µM (inactive)

## COc1cc(C2c3cc4c(cc3C(NCC(O)CO)C3COC(=O)[C@H]23)OCO4)cc(OC)c1OC (some centres not stated)
DMS-114
  GI50: 0.0733 µM (active)
HCC 2998
  GI50: 0.428 µM (active)
COLO 205
  GI50: 0.184 µM (active)
DMS-273
  GI50: 0.292 µM (active)
SK-OV-3
  GI50: 0.422 µM (active)
SF-295
  GI50: 0.213 µM (active)
IGROV-1
  GI50: > 100 µM (inactive)
KM12
  GI50: 0.217 µM (active)
CCRF-CEM
  GI50: 0.407 µM (active)
SN12C
  GI50: 0.466 µM (active)
SR
  GI50: 0.177 µM (active)
DLD-1
  GI50: 0.531 µM (active)
ACHN
  GI50: 0.69 µM (active)
SNB-78
  GI50: 0.0944 µM (active)
HOP-18
  GI50: > 100 µM (inactive)
M14
  GI50: 0.533 µM (active)
KM-20L2
  GI50: 0.143 µM (active)
SW-620
  GI50: 0.51 µM (active)
OVCAR-5
  GI50: > 100 µM (inactive)
NCI-H460
  GI50: 0.435 µM (active)
HCT-15
  GI50: 2.45 µM
MOLT-4
  GI50: 0.272 µM (active)
U-251
  GI50: 0.236 µM (active)
RPMI-8226
  GI50: 0.321 µM (active)
NCI-H23
  GI50: 0.267 µM (active)
HL-60
  GI50: 0.0785 µM (active)
HOP-62
  GI50: 0.221 µM (active)
K562
  GI50: 0.361 µM (active)
UACC-62
  GI50: 0.0973 µM (active)
LOX IMVI
  GI50: 0.146 µM (active)
SK-MEL-28
  GI50: 0.617 µM (active)
SF-268
  GI50: 0.374 µM (active)
XF498
  GI50: 0.372 µM (active)
NCI-H522
  GI50: 0.0405 µM (active)
UACC-257
  GI50: > 100 µM (inactive)
UO-31
  GI50: 4.37 µM (inactive)
SF-539
  GI50: 0.146 µM (active)
EKVX
  GI50: 0.4 µM (active)
786-0
  GI50: 0.578 µM (active)
TK-10
  GI50: > 100 µM (inactive)
Malme-3M
  GI50: > 100 µM (inactive)
M19-MEL
  GI50: 0.927 µM (active)
SNB-75
  GI50: 0.318 µM (active)
SNB-19
  GI50: 0.356 µM (active)
NCI-H226
  GI50: 0.289 µM (active)
HT-29
  GI50: 0.34 µM (active)
OVCAR-8
  GI50: 0.429 µM (active)
LXFL 529
  GI50: 0.163 µM (active)
